Test results as given in patent publication US20160201132A1, “GENE EXPRESSION BIOMARKERS OF LAQUINIMOD RESPONSIVENESS” (Teva Pharmaceutical Industries Ltd., priority 2013, published 2016).

Tested on: PBMC of RRMS patients
Test: Gene expression microarray analysis (HG-U133A-2) of PBMC from RRMS patients treated with LAQ, ancillary study to ALLEGRO
Type: in vivo, human
From the text: The goal of this ancillary study was to characterize gene expression changes and corresponding biological mechanisms induced in PBMC of RRMS patients by LAQ treatment. According to ALLEGRO clinical trial inclusion criteria, 25 patients were randomly assigned to receive LAQ (n=13, age 38.8±2.3 years, female/male ratio: 8/5) or placebo (n=12, age 37.2±3.4 years, female/male ratio: 8/4).
Peripheral blood samples were obtained from RRMS patients at baseline before start of LAQ treatment or placebo, after 0, 1, 6 and 24 month of treatment (visit 0, 1, 6 and 7 according to ALLEGRO clinical trial protocol correspondently) for gene microarray analysis.
Briefly, 1) Peripheral blood mononuclear cells (PBMC) were obtained from RRMS patients that participated in ALLEGRO and were treated daily with 0.6 mg LAQ or placebo. PBMC were subjected for gene expression analysis (HU-133A-2-Affymatrix arrays) at baseline and at 1 and 6 months of LAQ treatment; 2) Data was analyzed by Partek Genomics Solution software. Most informative genes (MIGs) were defined as those that differentiated between groups with p<0.01. Gene functional annotation, enrichment and pathway analysis were performed by Ingenuity software. For each time point, genes that changed in placebo group were excluded from further analysis; and 3) Verification of LAQ related mechanism was performed by Western blot.
PBMC were extracted from 15 ml peripheral blood, separated by Ficoll-Hypaque gradient. Total RNA was extracted using both Trizol (Invitrogen, USA) and Phase-Lock-Gel columns (Eppendorf, Germany) including a DNase digestion step. RNA integrity was assessed by RNA Experion automated electrophoresis system (Bio-Rad Laboratories, Hercules, Calif.).
Probe synthesis using 3 μg total RNA, hybridization, detection, and scanning was performed according to the standard Affymetrix, Inc. USA protocols; cDNA was synthesized using the Two-Cycle cDNA Synthesis Kit (Affymetrix, Inc., USA), and in-vitro transcription performed with the GeneChip IVT Labeling Kit (Affymetrix, Inc., USA). The biotin-labeled IVT-RNA was hybridized to HG-U133A-2 arrays containing 18,400 gene transcripts, each corresponding to 14,500 well-annotated human genes, washed in a GeneChip Fluidics Station 450 (Hewlett Packard, USA, GeneArray-™ scanner G2500A) and scanned according to the manufacturer's protocol (Affymetrix, Inc., USA).
Data analysis was performed on Partek Genomics Solution software (www.partek.com; Partek Incorporated, St. Louis, Mo.). Expression values were computed from raw CEL files by applying the Robust Multi-Chip Average (RMA) background correction algorithm. RMA correction included: 1) values background correction; 2) quintile normalization; 3) log 2 transformation; and 4) median polish summarization. The ANOVA, Repeated Measures and correlation analysis implicated in Partek software ware applied to evaluate LAQ effects. Most informative genes MIGs were defined as those that differentiated between experimental groups with p<0.01. All p-values were calculated for False Discovery Rate (FDR) multiple test correction at p=0.05.
Additionally, significance of individual genes was tested by parametric T-test and non parametric Mann-Whitney test using Bootstrapping approach based on repeated permutations of the data with 5% FDR for multiple testing.
Gene functional annotation, enrichment, and pathway analyses to identify the leading biological pathways that operated under LAQ treatment were performed by Ingenuity Pathways Analysis software (www.ingenuity.com).
ANOVA analysis was used to compare PBMC gene expression after 1, 6 or 24 month of LAQ treatment with baseline gene expression.
For each time point inventors performed analysis source of variation in dataset. (FIG. 1). Age, gender and batch effects were considered as confounders regarding LAQ or Placebo related changes. For each time point genes associated with Placebo effect were evaluated and excluded from further analysis. […]

[1] = after six months of LAQ treatment
[2] = combined 6 and 24 months vs baseline

## CCN(C(=O)c1c(O)c2c(Cl)cccc2n(C)c1=O)c1ccccc1 [LAQ, 5-chloro-N-ethyl-4-hydroxy-1-methyl-2-oxo-N-phenyl-1,2-dihydroquinoline-3-carboxamide]
[1]
  p, down regulation of pro-inflammatory cytokines IL-9/11/12/20/36, TNFRSF11A/B, IFNA4/8/10/17 and receptors for IL-5/13/20/22: 3*10^−3 to 9*10^−3
  p, down-regulation of MMP16/24/26/28 and ADAM12/18/22: 4.95*10^−4 to 1.26*10^−3
  p, suppression of CCL19 and chemokine receptor CXCR1/2: 6.79*10^−3
After six months of treatment
  genes (#), Adhesion of cells: 119
  genes (#), Caveolar mediated endocytosis: 13
  genes (#), Cell signaling: Neurotransmission: 56
  genes (#), Cellular movement: Invasion of cells: 120
  genes (#), Development: Arachidonic Acid metabolism: 18
  genes (#), Development: G protein Coupled Receptor Signaling: 73
  genes (#), Hematological system: Coagulation system: 7
  genes (#), Hematological system: Intrinsic prothrombin activation pathway: 6
  genes (#), Inflammatory response: IL-12 signaling: 11
  genes (#), TGFB signaling: 14
After six months of treatment, cellular movement function
  genes (#), Leukocyte Extravasation Signaling: 31
After six months of treatment, inflammatory response function
  genes (#), Leukocyte Extravasation Signaling: 29
[2]
  # of genes p < 0.01 (LAQ related MIGs, ANOVA): 2922
  Down regulated genes (LAQ related MIGs): 2911
  Up-regulated genes (LAQ related MIGs): 11
Gene AAK1
  Fold-Change (4.0 vs. 0.0): −1.184
Gene ACSM5
  Fold-Change (4.0 vs. 0.0): −1.184
Gene ACTA1
  Fold-Change (4.0 vs. 0.0): −1.184
Gene AIF1
  Fold-Change (4.0 vs. 0.0): −1.179
Gene AKAP9
  Fold-Change (4.0 vs. 0.0): −1.183
Gene ALX4, after six months of LAQ
  Fold-Change (4.0 vs. 0.0): −1.285
Gene ASCL1
  Fold-Change (4.0 vs. 0.0): −1.178
Gene ATN1
  Fold-Change (4.0 vs. 0.0): −1.181
Gene BCAN
  Fold-Change (4.0 vs. 0.0): −1.178
Gene BCAP29
  Fold-Change (4.0 vs. 0.0): −1.18
Gene C10orf81
  Fold-Change (4.0 vs. 0.0): −1.183
Gene CA10
  Fold-Change (4.0 vs. 0.0): −1.181
Gene CBS
  Fold-Change (4.0 vs. 0.0): −1.179
Gene CLCN7
  Fold-Change (4.0 vs. 0.0): −1.177
Gene CLEC4M
  Fold-Change (4.0 vs. 0.0): −1.184
Gene CLN8
  Fold-Change (4.0 vs. 0.0): −1.182
Gene CNOT4
  Fold-Change (4.0 vs. 0.0): −1.181
Gene CYP2B6 /// CYP2B7P1, after six months of LAQ
  Fold-Change (4.0 vs. 0.0): −1.2873
Gene CYR61
  Fold-Change (4.0 vs. 0.0): −1.181
Gene DCBLD2
  Fold-Change (4.0 vs. 0.0): −1.18
Gene DDN
  Fold-Change (4.0 vs. 0.0): −1.178
Gene DHX34
  Fold-Change (4.0 vs. 0.0): −1.184
Gene DNAH3
  Fold-Change (4.0 vs. 0.0): −1.184
Gene DPYSL4
  Fold-Change (4.0 vs. 0.0): −1.18
Gene DUOX2
  Fold-Change (4.0 vs. 0.0): −1.178
Gene ESPL1, after six months of LAQ
  Fold-Change (4.0 vs. 0.0): −1.284
Gene EXO1
  Fold-Change (4.0 vs. 0.0): −1.179
Gene FAM188A
  Fold-Change (4.0 vs. 0.0): −1.178
Gene FAM189A1
  Fold-Change (4.0 vs. 0.0): −1.183
Gene GIPR
  Fold-Change (4.0 vs. 0.0): −1.1819
Gene GPR12
  Fold-Change (4.0 vs. 0.0): −1.178
Gene GPRIN2
  Fold-Change (4.0 vs. 0.0): −1.179
Gene GRK5, after six months of LAQ
  Fold-Change (4.0 vs. 0.0): −1.289
Gene GRM1
  Fold-Change (4.0 vs. 0.0): −1.181
Gene GRM8
  Fold-Change (4.0 vs. 0.0): −1.182
Gene HHLA1
  Fold-Change (4.0 vs. 0.0): −1.181
Gene HOXC11
  Fold-Change (4.0 vs. 0.0): −1.181
Gene HS3ST3B1
  Fold-Change (4.0 vs. 0.0): −1.178
Gene ICMT
  Fold-Change (4.0 vs. 0.0): −1.183
Gene IFNA17
  Fold-Change (4.0 vs. 0.0): −1.18
Gene IGHG1
  Fold-Change (4.0 vs. 0.0): −1.183
Gene IHH
  Fold-Change (4.0 vs. 0.0): −1.179
Gene ITGB4
  Fold-Change (4.0 vs. 0.0): −1.181
Gene KCND3
  Fold-Change (4.0 vs. 0.0): −1.184
Gene KRT5, after six months of LAQ
  Fold-Change (4.0 vs. 0.0): −1.285
Gene LAMA3
  Fold-Change (4.0 vs. 0.0): −1.181
Gene LAMC2
  Fold-Change (4.0 vs. 0.0): −1.18
Gene MALL, after six months of LAQ
  Fold-Change (4.0 vs. 0.0): −1.286
Gene MGC2889
  Fold-Change (4.0 vs. 0.0): −1.18
Gene MGC31957
  Fold-Change (4.0 vs. 0.0): −1.183
Gene MORN1
  Fold-Change (4.0 vs. 0.0): −1.178
Gene MYOZ1
  Fold-Change (4.0 vs. 0.0): −1.183
Gene NAGLU
  Fold-Change (4.0 vs. 0.0): −1.184
Gene NECAB2
  Fold-Change (4.0 vs. 0.0): −1.179
Gene NNAT
  Fold-Change (4.0 vs. 0.0): −1.184
Gene NOVA2
  Fold-Change (4.0 vs. 0.0): −1.18
Gene NOX1
  Fold-Change (4.0 vs. 0.0): −1.179
Gene NPR1
  Fold-Change (4.0 vs. 0.0): −1.1842
Gene NR1I2
  Fold-Change (4.0 vs. 0.0): −1.182
Gene NTRK2
  Fold-Change (4.0 vs. 0.0): −1.183
Gene OR1A2
  Fold-Change (4.0 vs. 0.0): −1.179
Gene OR2J2
  Fold-Change (4.0 vs. 0.0): −1.18
Gene OR3A3
  Fold-Change (4.0 vs. 0.0): −1.182
Gene PACRG
  Fold-Change (4.0 vs. 0.0): −1.182
Gene PAH
  Fold-Change (4.0 vs. 0.0): −1.182
Gene PARD3, after six months of LAQ
  Fold-Change (4.0 vs. 0.0): −1.288
Gene PDX1
  Fold-Change (4.0 vs. 0.0): −1.179
Gene PKNOX2
  Fold-Change (4.0 vs. 0.0): −1.183
Gene POLQ
  Fold-Change (4.0 vs. 0.0): −1.179
Gene POPDC3
  Fold-Change (4.0 vs. 0.0): −1.184
Gene PRDM11
  Fold-Change (4.0 vs. 0.0): −1.183
Gene PRKCE
  Fold-Change (4.0 vs. 0.0): −1.179
Gene PRKG1
  Fold-Change (4.0 vs. 0.0): −1.181
Gene PRSS7
  Fold-Change (4.0 vs. 0.0): −1.18
Gene PURA
  Fold-Change (4.0 vs. 0.0): −1.179
Gene RAB11B
  Fold-Change (4.0 vs. 0.0): −1.18
Gene RAD51
  Fold-Change (4.0 vs. 0.0): −1.18
Gene RELN
  Fold-Change (4.0 vs. 0.0): −1.18
Gene RET
  Fold-Change (4.0 vs. 0.0): −1.183
Gene RUNX2
  Fold-Change (4.0 vs. 0.0): −1.177
Gene SERPINB3
  Fold-Change (4.0 vs. 0.0): −1.178
Gene SLC6A11
  Fold-Change (4.0 vs. 0.0): −1.181
Gene SLC25A10
  Fold-Change (4.0 vs. 0.0): −1.182
Gene SLC30A3
  Fold-Change (4.0 vs. 0.0): −1.184
Gene SLC37A4
  Fold-Change (4.0 vs. 0.0): −1.181
Gene SLC39A2
  Fold-Change (4.0 vs. 0.0): −1.178
Gene SLCO5A1
  Fold-Change (4.0 vs. 0.0): −1.181
Gene SOD3
  Fold-Change (4.0 vs. 0.0): −1.181
Gene SOX15, after six months of LAQ
  Fold-Change (4.0 vs. 0.0): −1.285
Gene STRA6
  Fold-Change (4.0 vs. 0.0): −1.181
Gene TACR2
  Fold-Change (4.0 vs. 0.0): −1.18
Gene TRIO
  Fold-Change (4.0 vs. 0.0): −1.1816
Gene TTLL5
  Fold-Change (4.0 vs. 0.0): −1.182
Gene TTYH1
  Fold-Change (4.0 vs. 0.0): −1.177
Gene VPS37B, after six months of LAQ
  Fold-Change (4.0 vs. 0.0): −1.288
Gene VSNL1
  Fold-Change (4.0 vs. 0.0): −1.18
Gene XPNPEP2
  Fold-Change (4.0 vs. 0.0): −1.183
Gene ZNF215
  Fold-Change (4.0 vs. 0.0): −1.182
Gene ZNF280B
  Fold-Change (4.0 vs. 0.0): −1.177
Gene ZNF484
  Fold-Change (4.0 vs. 0.0): −1.1781
Of 354 genes affected after 1 month of treatment
  suppressed molecules associated with different mechanisms of inflammatory response: 50
Of 1564 genes that passed FDR, more than 6 months (combined 6 and 24 months)
  down-regulated genes related to cellular movement mechanisms: 305
One month of treatment
  share of significantly changed genes that were down regulated: 98%
Out of 1562 genes, 6 months of treatment
  genes related to suppression of Cellular movement functions: 260
Six months of treatment
  share of significantly changed genes that were down regulated: 99%
